Assay results as given in PubChem BioAssay AID743486 (Broad Institute, 2014).
Active and inactive are the calls of the source. No rule for the calls is given here.

Each compound was assayed on Mycobacterium tuberculosis starved, CFU imaging (assay: M. tuberculosis CFU reduction, CFU imaging, dry powder, dose response (AID 743486)).
`Cn1c(NC(=O)c2ccccc2)nc2c3ncccc3ccc21` was tested, and the AC90 was > 64 µM (inactive).
For `Cn1c(NC(=O)c2ccccc2)nc2c3nccnc3ccc21`, the AC90 was > 64 µM (inactive).
For `Cn1c(NC(=O)c2ccccc2)nc2c3cnccc3ccc21`, the AC90 was < 32 µM.
For `Cn1c(NC(=O)c2ccccc2)nc2c3ccncc3ccc21`, the AC90 was < 64 µM.
